Data from article PMC12147183, “Lacritin cleavage-potentiated targeting of iron - respiratory reciprocity promotes bacterial death” (The Journal of Biological Chemistry, 2025).
pIC50: −log10 of the molar value. Peptide text beside a SMILES is read from it.

Experiments:
Fe^2+ uptake by PA14 = assay type: cell-based, Pseudomonas aeruginosa
Procedure: Iron depletion was induced in PA14 cells (5 × 10^9 cfu in 10 ml 10 mM Na2HPO4, 1.8 mM KH2PO4, 2.7 mM KCl, 137 mM NaCl (pH 7.2) by treatment with the chelator 1 mM 2,2′-bipyridyl at room temperature for 1 h. After washing twice with 0.9% NaCl, cells were suspended in 1 ml of 1 mM Na2HPO4, 0.18 mM KH2PO4, 0.27 mM KCl, 13.7 mM NaCl for treatment without or with 1, 10, 25, 50 or 100 μM of N-104 (or negative control N-80/C-25 or C-95) for 45 min at 35 °C, incubated at the same temperature for 15 min with 100 μM FeSO4 and 13 mM ascorbic acid, washed twice with 1 mM Na2HPO4, 0.18 mM KH2PO4, 0.27 mM KCl, and 13.7 mM NaCl, and pelleted at 12,000g. The ferrozine assay ([54]) was subsequently employed. Briefly, cells in pellets were lysed with 20 μl of 50 mM NaOH, partially neutralized with 20 μl of 10 mM HCl, subjected to iron release with 20 μl of acidified 0.29 M KMnO4 for 30 min at 80 °C, cooled to room temperature, incubated with 7 μl of 30 mM ferrozine, 1.1 μl of 180 mM neocuproine, 15 μl of 5 M ammonium acetate and 15 μl of 1 M ascorbic acid for 30 min at room temperature and then centrifuged at 21,000g for 10 min. Cellular iron uptake could then be assessed from the supernatant OD565. Single-molecule transport per cell was estimated using a standard curve.

His-tagged FeoB = His-tagged FeoB binding to peptide columns; set-up: species or system P. aeruginosa PAO1; conditions: step gradient 0.3, 0.5, 1.0 M KCl, 0.05% dodecyl-β-D-maltopyranoside, 4 °C, anti-His Western blot, n = 3
Procedure: (§1) We used the pFeoB plasmid ([6]) with feoB insert from P. aeruginosa PAO1 in pET41-a(+) with a C-terminal 8-His tag and kanamycin-resistant cassette, and E. coli EcCD00397460 plasmid (DNASU Plasmid Repository, Tempe Arizona) with potH insert in PCDF Bravo with C-terminal 10-His tag and streptomycin-resistant cassette. Plasmids of each were generated using standard procedures. His-tagged FeoB or PotH proteins in the supernatant were captured on Ni-Sepharose for 4 h with end-over-end rotation at 4 °C, washed with 10 mM HEPES potassium salt, 10% glycerol, 0.5 M NaCl, 10 mM MgSO4, 10 mM imidazole, and 0.05% dodecyl-β-D-maltopyranoside and eluted with the same wash buffer but containing 0.2 M NaCl and 0.5 M imidazole. Eluted FeoB and PotH were concentrated into 10 mM HEPES potassium salt, 10% glycerol, 10 mM MgSO4, 0.05% dodecyl-β-D-maltopyranoside and 0.15 M NaCl respectively on Amicon Ultra-0.5 Centrifugal UFC505024, UFC503024 and UFC900596 filter units.
(§2) N-104 and C-95 columns (1 ml each) equilibrated in 10 mM HEPES potassium salt, 10% glycerol, 10 mM MgSO4, 0.05% dodecyl-β-D-maltopyranoside, and 0.15 M NaCl were individually mixed at 4 °C overnight with purified FeoB and PotH. […]

[1] = tested on: ^14C-spermidine uptake by PA14; assay type: cell-based, Pseudomonas aeruginosa
Procedure: 100 μl aliquots (0.8 × 10^8 cfu) of PA14 cell cultures in 1 mM Na2HPO4, 0.18 mM KH2PO4, 0.27 mM KCl, 13.7 mM NaCl without or with 1, 10, 25, 50 or 100 μM N-104 (or N-80/C-25 or C-95) for 45 min at 35 °C were incubated with 1 μl of 10 mM [1,4-^14C]putrescine (0.1 mCi/ml; ARC-0245–250, American Radiolabeled Chemicals) or [1,4-^14C]spermidine (0.1 mCi/ml; ARC-3138–50, American Radiolabeled Chemicals) for 15 min at 35 °C. Cell pellets were washed four times with 100 μl of 10 mM Na2HPO4, 1.8 mM KH2PO4, 2.7 mM KCl, 137 mM NaCl (pH 7.2) and then transferred to 4 ml of scintillation fluid (1200.437, PerkinElmer OptiPhase HiSafe 3) for analysis in a Beckman Coulter LS6500. Also assessed was radioactivity from the last wash. Single-molecule transportation per cell was estimated using standard curves for each radiolabeled polyamine.

His-tagged PotH = target: T1, His-tagged PotH (Escherichia coli, UniProt P31135); experiment: His-tagged PotH binding to peptide columns; set-up: species or system E. coli; conditions: step gradient 0.3, 0.5, 1.0 M KCl, 0.05% dodecyl-β-D-maltopyranoside, 4 °C, anti-His Western blot, n = 3
T1 construct: host or cells: legend says PA14
Procedure: as §1, §2

T1 sequence (P31135 whole entry): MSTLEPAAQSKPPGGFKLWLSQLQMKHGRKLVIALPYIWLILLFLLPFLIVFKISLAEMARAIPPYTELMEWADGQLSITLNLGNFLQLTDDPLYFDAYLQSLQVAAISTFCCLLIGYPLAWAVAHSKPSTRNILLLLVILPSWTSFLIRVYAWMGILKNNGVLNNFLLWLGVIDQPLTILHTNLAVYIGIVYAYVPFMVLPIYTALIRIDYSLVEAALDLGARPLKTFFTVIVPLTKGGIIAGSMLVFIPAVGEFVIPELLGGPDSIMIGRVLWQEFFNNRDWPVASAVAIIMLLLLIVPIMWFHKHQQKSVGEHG

SMILES: CC(=O)N[C@@H](C)C(=O)N[C@@H](CCC(N)=O)C(=O)N[C@@H](CCCCN)C(=O)N[C@@H](CC(C)C)C(=O)N[C@@H](CC(C)C)C(=O)N[C@@H](CCCCN)C(=O)N[C@@H](CCCCN)C(=O)N[C@@H](Cc1ccccc1)C(=O)N[C@@H](CO)C(=O)N[C@@H](CC(C)C)C(=O)N[C@@H](CC(C)C)C(=O)N[C@@H](CCCCN)C(=O)N1CCC[C@H]1C(=O)N[C@@H](Cc1c[nH]c2ccccc12)C(=O)N[C@@H](C)C(=O)O [N-104] (Ac-AQKLLKKFSLLKPWA-OH)
- pIC50 (Fe^2+ uptake by PA14; 1 h): 5.00
- KCl elution of His-FeoB from immobilized peptide (His-tagged FeoB): eluted with 0.5 and 1 M but not 0.3 M KCl
- pIC50 [1]: 5.00
- KCl elution of His-PotH from immobilized peptide (His-tagged PotH): eluted with 0.5 and 1 M but not 0.3 M KCl

SMILES: C[C@H](NC(=O)CNC(=O)[C@@H](NC(=O)[C@H](CO)NC(=O)[C@H](CC(=O)O)NC(=O)[C@H](CO)NC(=O)[C@H](CO)NC(=O)[C@H](C)NC(=O)[C@H](CC(=O)O)NC(=O)[C@@H](N)CCC(=O)O)[C@@H](C)O)C(=O)N[C@@H](CC(=O)O)C(=O)N1CCC[C@H]1C(=O)N[C@@H](C)C(=O)N[C@@H](CCC(N)=O)C(=O)N[C@@H](CCC(=O)O)C(=O)N[C@@H](C)C(=O)NCC(=O)N[C@H](C(=O)N[C@@H](CO)C(=O)N[C@@H](CCCCN)C(=O)N1CCC[C@H]1C(=O)N[C@@H](CC(N)=O)C(=O)N[C@@H](CCC(=O)O)C(=O)N[C@@H](CCC(=O)O)C(N)=O)[C@@H](C)O [C-95, reference compound] (H-EDASSDSTGADPAQEAGTSKPNEE-NH2)
- effect on exogenous Fe^2+ uptake (Fe^2+ uptake by PA14; 1 to 100 μM peptide): had no effect
- KCl elution of His-FeoB from immobilized peptide (His-tagged FeoB): lacked
- effect on ^14C-spermidine uptake ([1]; 1 to 100 μM peptide): had no effect
- KCl elution of His-PotH from immobilized peptide (His-tagged PotH): lacked
